Results taken from ChEMBL document CHEMBL3414474, “Design and synthesis of piperidine derivatives as novel human heat shock protein 70 inhibitors for the treatment of drug-resistant tumors” (Eur J Med Chem, 2015).

Key:
[1] = Growth inhibition of human SK/LapR1.0 cells at 5 uM incubated for 72 hrs by ATP detection based luminescent assay; assay type: functional; details: read-out: GI
[2] = Binding affinity to human HSP70 at 25 degC by surface plasmon resonance assay
[3] = organism: Homo sapiens; experiment: Inhibition of HSP70 (unknown origin) at 200 uM pre-incubated for 30 mins followed by ATP addiction and measured after 3 hrs by malachite green reagent based colorimetric assay
[4] = Growth inhibition of human BT474 cells at 5 uM incubated for 72 hrs by ATP detection based luminescent assay; assay type: functional; details: BT-474, 72 h, read-out: GI
[5] = Growth inhibition of human BT/LapR1.0 cells at 5 uM incubated for 72 hrs by ATP detection based luminescent assay; assay type: functional; details: read-out: GI
[6] = test system: MDA-MB-361; experiment: Growth inhibition of human MDA-MB-361 cells at 5 uM incubated for 72 hrs by ATP detection based luminescent assay; assay type: functional; details: MDA-MB-361, 72 h, read-out: GI
[7] = Growth inhibition of human SKBR3 cells at 5 uM incubated for 72 hrs by ATP detection based luminescent assay; assay type: functional; details: SK-BR-3, 72 h, read-out: GI
[8] = test system: MDA-MB-453; experiment: Growth inhibition of human MDA-MB-453 cells at 5 uM incubated for 72 hrs by ATP detection based luminescent assay; assay type: functional; details: MDA-MB-453, 72 h, read-out: GI

| Kd [2] | inhibition [3] | Structure (SMILES) | inhibition of growth at 5 µM [1] | inhibition of growth at 5 µM [4] | inhibition of growth at 5 µM [5] | inhibition of growth at 5 µM [6] | inhibition of growth at 5 µM [7] | inhibition of growth at 5 µM [8] |
| --- | --- | --- | --- | --- | --- | --- | --- | --- |
| – | – | CCOc1ncc(CN2CCC(N(C)Cc3ccccc3C#N)CC2)s1 | 7.2% | – | – | – | – | – |
| 200 nM | 10.6% | CSc1ncc(CN2CCC(N(C)Cc3ccc(C)cc3)CC2)s1 | – | – | – | – | – | – |
| – | – | COc1cc(N2CCC(N(C)Cc3ccc(F)cc3)CC2)ncn1 | 5.7% | 7.8% | 8.1% | 4.9% | 7.6% | 5% |
| – | 53.1% | COc1ccc(-c2nc(-c3cc(C(F)(F)F)cc(C(F)(F)F)c3)n(Cc3ccc(C(N)=O)cc3)c2-c2ccc(OC)cc2)cc1 | – | – | – | – | – | – |
| – | – | CSc1nccc(N2CCC(N(C)Cc3ccc(C)cc3)CC2)n1 | 42% | 69.2% | 65.8% | 55.7% | 38.9% | 66.6% |
| – | 16.7% | CSc1nccc(N2CCC(N(C)Cc3ccccc3C#N)CC2)n1 | 80.7% | 74.2% | 68.1% | 64.1% | 87.6% | 68.7% |
| – | – | CSc1ncc(CN2CCC(N(C)Cc3c(F)cccc3Cl)CC2)s1 | 4.5% | 49.5% | 59.9% | 47.2% | 9.2% | 65.3% |
| 281 nM | – | COc1nccc(N2CCC(N(C)Cc3ccc(F)cc3)CC2)n1 | 9% | – | – | – | – | – |
| – | – | CS(=O)(=O)CCNCc1ccc(-c2ccc3ncnc(Nc4ccc(OCc5cccc(F)c5)c(Cl)c4)c3c2)o1 [LAPATINIB] | – | – | 18% | – | 79% | – |
| – | – | CSc1nccc(N2CCC(N(C)Cc3cccc(F)c3)CC2)n1 | 35.2% | 67.1% | 63.9% | 50.4% | 32.6% | 66.2% |
| 206 nM | 43% | N#Cc1ccc(COC[C@H]2O[C@@H](n3c(NCc4ccc(Cl)c(Cl)c4)nc4c(N)ncnc43)[C@H](O)[C@@H]2O)cc1 | – | – | – | – | – | – |
| – | – | COc1nccc(N2CCC(N(C)Cc3cc(Cl)ccc3Cl)CC2)n1 | 11.7% | 27.5% | 22.7% | 22% | 24.7% | 50.6% |
| – | – | CN(Cc1ccccc1C#N)C1CCN(Cc2cnc(Cl)s2)CC1 | 4.2% | -4.1% | 4% | -8.5% | 7.3% | 8.2% |
| – | – | COc1nccc(N2CCC(N(C)Cc3ccc(C#N)cc3)CC2)n1 | 16.6% | 60.4% | 58.1% | 27.7% | 31.7% | 66.2% |
| – | – | CN(Cc1c(Cl)cccc1Cl)C1CCN(Cc2cnc(Cl)s2)CC1 | 4.5% | 70% | 66.3% | 36.3% | 37.8% | 72.4% |
| – | 6.11% | COc1nccc(N2CCC(N(C)Cc3ccccc3Cl)CC2)n1 | 35.8% | 36.7% | 28.6% | 45.1% | 41.4% | 60.8% |
| – | – | CN(Cc1c(F)cccc1Cl)C1CCN(Cc2cnc(Cl)s2)CC1 | 1.5% | – | 3.2% | – | 9.8% | – |
| – | – | Cc1ccc(CN(C)C2CCN(Cc3cnc(Cl)s3)CC2)cc1 | 8.4% | – | 16% | – | – | – |
| – | 5.49% | CCOc1ncc(CN2CCC(N(C)Cc3ccc(C#N)cc3)CC2)s1 | 6.7% | – | – | – | – | – |
| – | – | COc1nccc(N2CCC(N(C)Cc3ccc(C)cc3)CC2)n1 | 13.5% | 61.5% | 58.8% | 30.1% | 19.7% | 68.9% |
| – | – | Clc1cccc(CNC2CCN(Cc3cnc(Cl)s3)CC2)c1 | 4.1% | 3.8% | 7.2% | 3.2% | – | 2.4% |
| – | – | CCOc1ncc(CN2CCC(N(C)Cc3ccc(F)cc3)CC2)s1 | – | – | – | – | 26% | – |
| – | – | COc1cc(N2CCC(N(C)Cc3ccc(C)cc3)CC2)ncn1 | 22% | 5% | 8% | – | – | – |
| – | – | CCOc1ncc(CN2CCC(N(C)Cc3cc(Cl)ccc3Cl)CC2)s1 | 5.2% | 5.6% | 9.6% | – | 9.4% | – |
| – | – | COc1nccc(N2CCC(N(C)Cc3cccc(F)c3)CC2)n1 | 3.9% | 9.9% | – | 8.5% | 9.2% | – |
| – | – | CCOc1ncc(CN2CCC(N(C)Cc3cccc(Cl)c3)CC2)s1 | 5.2% | – | – | – | – | – |

| Kd [2] | inhibition [3] | Structure (SMILES) | inhibition of growth at 5 µM [1] | inhibition of growth at 5 µM [4] | inhibition of growth at 5 µM [5] | inhibition of growth at 5 µM [6] | inhibition of growth at 5 µM [7] | inhibition of growth at 5 µM [8] |
| --- | --- | --- | --- | --- | --- | --- | --- | --- |
| – | – | CSc1nccc(N2CCC(N(C)Cc3ccc(Cl)c(Cl)c3)CC2)n1 | – | – | – | – | – | 60% |
| – | 4.5% | CCOc1ncc(CN2CCC(N(C)Cc3ccc(Cl)cc3Cl)CC2)s1 | 12% | – | – | – | – | – |
| – | – | CN(Cc1ccc(F)cc1)C1CCN(Cc2cnc(Cl)s2)CC1 | -0.1% | 7.1% | 9% | -1.3% | – | 11% |
| – | – | COc1cc(N2CCC(N(C)Cc3cc(Cl)ccc3Cl)CC2)ncn1 | 9.4% | 5.4% | 5.6% | 8.4% | 5.2% | 9.4% |
| – | – | Fc1ccc(CNC2CCN(Cc3cnc(Cl)s3)CC2)cc1 | 40.4% | 70% | 66.3% | 36.3% | 37.8% | 72.4% |
| – | – | COc1cc(N2CCC(N(C)Cc3ccc(Cl)c(Cl)c3)CC2)ncn1 | 28% | 9.8% | 9.2% | 6.5% | – | – |
| – | 11.3% | CN(Cc1ccc(C#N)cc1)C1CCN(Cc2cnc(Cl)s2)CC1 | 7.5% | – | – | – | – | – |
| – | – | Cc1ccccc1CN(C)C1CCN(Cc2cnc(Cl)s2)CC1 | 5.1% | 1.5% | 4% | 4.4% | 9.7% | 3.5% |
| – | 6.21% | CSc1ncc(CN2CCC(N(C)Cc3ccc(Cl)cc3Cl)CC2)s1 | – | 70% | – | – | – | – |
| – | – | CN(Cc1cccc(Cl)c1)C1CCN(Cc2cnc(Cl)s2)CC1 | 8.5% | 7.1% | 8.4% | 9.7% | – | – |
| – | – | Clc1ncc(CN2CCC(NCc3ccc(Cl)c(Cl)c3)CC2)s1 | – | 11% | – | – | – | – |
| – | – | CCOc1ncc(CN2CCC(N(C)Cc3ccccc3Cl)CC2)s1 | 0.6% | – | – | – | – | – |
| – | – | CSc1ncc(CN2CCC(N(C)Cc3cccc(F)c3)CC2)s1 | 2.1% | – | – | – | – | – |
| – | – | CN(Cc1ccc(Cl)c(Cl)c1)C1CCN(Cc2cnc(Cl)s2)CC1 | 5.3% | – | – | – | – | – |
| 245 nM | – | CSc1ncc(CN2CCC(N(C)Cc3cccc(Cl)c3)CC2)s1 | 7.3% | – | – | – | – | – |
| – | – | CSc1nccc(N2CCC(N(C)Cc3cc(Cl)ccc3Cl)CC2)n1 | 29.4% | 61% | 56.9% | 45.7% | 19.3% | 69.3% |
| – | – | COc1cc(N2CCC(N(C)Cc3ccccc3Cl)CC2)ncn1 | 29% | – | – | – | – | – |
| – | – | COc1cc(N2CCC(N(C)Cc3cccc(Cl)c3)CC2)ncn1 | – | – | 9.4% | – | – | – |
| – | – | CN(Cc1cccc(F)c1)C1CCN(Cc2cnc(Cl)s2)CC1 | 1.3% | 2.4% | 5.7% | 3.2% | 4.2% | 4.4% |
| – | – | CSc1ncc(CN2CCC(N(C)Cc3ccccc3C)CC2)s1 | 6.9% | – | 1.4% | – | – | – |
| – | – | COc1nccc(N2CCC(N(C)Cc3ccccc3C#N)CC2)n1 | 74.3% | 71.6% | 72.7% | 53.3% | 86.5% | 79.5% |
| – | – | CCOc1ncc(CN2CCC(N(C)Cc3c(Cl)cccc3Cl)CC2)s1 | 5.1% | – | – | – | – | – |
| – | – | COc1cc(N2CCC(N(C)Cc3ccc(C#N)cc3)CC2)ncn1 | 8.8% | – | – | – | – | – |
| 204 nM | 7.73% | CSc1nccc(N2CCC(N(C)Cc3ccc(F)cc3)CC2)n1 | – | – | – | 46% | – | – |
| – | 10.7% | CSc1ncc(CN2CCC(N(C)Cc3ccc(Cl)c(Cl)c3)CC2)s1 | – | – | – | – | – | – |
